Reference: ChEMBL document CHEMBL5055650, “4-Acyl Pyrrole Capped HDAC Inhibitors: A New Scaffold for Hybrid Inhibitors of BET Proteins and Histone Deacetylases as Antileukemia Drug Leads” (J Med Chem, 2021)
Activity calls are given as the source filed them. The rule behind the calls is not given here.

Legend:
Danio rerio [1] = species: Danio rerio; test: Toxicity in zebrafish embryos assessed as brain hemorrhage at 0.005 uM after 72 hrs by visual analysis (reference value: 0%); format: organism-based; conditions: in vivo
HPBALL [2] = test: Induction of apoptosis in human HPBALL cells assessed as accumulation at sub-G1 phase at 5 uM after 72 hrs by flow cytometry; format: functional, cell-based
Danio rerio [3] = test: Toxicity in zebrafish embryos assessed as yolk sac edema at 0.05 uM after 72 hrs by visual analysis (reference value: 0%); format: organism-based, Embryo; conditions: in vivo
Danio rerio [4] = species: Danio rerio; test: Toxicity in zebrafish embryos assessed as tail necrosis at 5 uM after 72 hrs by visual analysis (reference value: 0%); format: organism-based; conditions: in vivo
[5] = biological target: Bromodomain-containing protein 2 (Homo sapiens, UniProt P25440); test: Binding affinity to human BRD2 domain 1 assessed as dissociation constant by isothermal titration calorimetry assay
Sequence of Bromodomain-containing protein 2 (P25440 whole entry, the tested form may be a part): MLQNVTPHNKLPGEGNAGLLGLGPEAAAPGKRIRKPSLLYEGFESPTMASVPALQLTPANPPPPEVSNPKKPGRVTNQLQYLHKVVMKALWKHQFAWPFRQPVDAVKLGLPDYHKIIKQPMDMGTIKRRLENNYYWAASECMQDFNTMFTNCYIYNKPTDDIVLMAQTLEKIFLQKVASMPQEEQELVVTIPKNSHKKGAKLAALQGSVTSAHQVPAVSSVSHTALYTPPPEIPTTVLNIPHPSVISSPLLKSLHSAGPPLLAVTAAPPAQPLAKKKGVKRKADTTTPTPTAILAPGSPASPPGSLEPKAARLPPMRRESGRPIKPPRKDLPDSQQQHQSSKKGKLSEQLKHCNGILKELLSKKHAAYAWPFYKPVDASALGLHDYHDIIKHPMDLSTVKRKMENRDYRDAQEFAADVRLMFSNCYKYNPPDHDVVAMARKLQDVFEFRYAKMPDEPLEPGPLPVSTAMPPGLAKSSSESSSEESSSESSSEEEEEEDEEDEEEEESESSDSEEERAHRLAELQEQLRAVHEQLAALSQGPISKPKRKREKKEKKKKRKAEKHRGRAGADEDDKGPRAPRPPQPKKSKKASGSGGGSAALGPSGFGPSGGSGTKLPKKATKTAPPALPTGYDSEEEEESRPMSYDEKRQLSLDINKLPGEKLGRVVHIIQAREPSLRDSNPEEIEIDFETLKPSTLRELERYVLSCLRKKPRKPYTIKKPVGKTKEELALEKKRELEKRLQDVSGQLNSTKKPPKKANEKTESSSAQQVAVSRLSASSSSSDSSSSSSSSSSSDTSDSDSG

Danio rerio [6] = species: Danio rerio; test: Toxicity in zebrafish embryos assessed as small eyes at 0.5 uM after 72 hrs by visual analysis (reference value: 10%); format: organism-based, Embryo; conditions: in vivo
Danio rerio [7] = species: Danio rerio; test: Toxicity in zebrafish embryos assessed as head necrosis at 5 uM after 72 hrs by visual analysis (reference value: 0%); format: organism-based; conditions: in vivo
Danio rerio [8] = species: Danio rerio; test: Toxicity in zebrafish embryos assessed as brain hemorrhage at 50 uM after 72 hrs by visual analysis (reference value: 0%); format: organism-based; conditions: in vivo
Danio rerio [9] = species: Danio rerio; test: Toxicity in zebrafish embryos assessed as tail necrosis at 50 uM after 72 hrs by visual analysis (reference value: 0%); format: organism-based; conditions: in vivo
Danio rerio [10] = species: Danio rerio; test: Toxicity in zebrafish embryos assessed as tail necrosis at 0.05 uM after 72 hrs by visual analysis (reference value: 0%); format: organism-based; conditions: in vivo
HPBALL [11] = test: Induction of apoptosis in human HPBALL cells assessed as annexin V positive cells at 5 uM after 48 hrs by annexin V/PI staining measured by flow cytometry; format: functional, cell-based
Danio rerio [12] = species: Danio rerio; test: Toxicity in zebrafish embryos assessed as teratogenesis at 0.5 uM after 72 hrs by visual analysis (reference value: 0%); format: organism-based, Embryo; conditions: in vivo
MOLT-4 = test: Cytotoxicity against human MOLT-4 cells assessed as cell viability at 5 uM by CellTiter-Glo luminescent assay; format: functional; conditions: read-out: Activity
[13] = biological target: Bromodomain-containing protein 4 (Homo sapiens, UniProt O60885); test: Binding affinity to human BRD4 domain 1 (unknown origin) assessed as dissociation constant by isothermal titration calorimetry assay; conditions: read-out: Kd
Danio rerio [14] = species: Danio rerio; test: Toxicity in zebrafish embryos assessed as cardiac teratogenesis/necrosis at 0.5 uM after 72 hrs by visual analysis (reference value: 0%); format: organism-based, Embryo; conditions: in vivo
Danio rerio [15] = species: Danio rerio; test: Toxicity in zebrafish embryos assessed as malformation of head at 50 uM after 72 hrs by visual analysis (reference value: 0%); format: organism-based; conditions: in vivo
Danio rerio [16] = species: Danio rerio; test: Toxicity in zebrafish embryos assessed as cardiac teratogenesis/necrosis at 5 uM after 72 hrs by visual analysis (reference value: 0%); format: organism-based, Embryo; conditions: in vivo
Danio rerio [17] = species: Danio rerio; test: Toxicity in zebrafish embryos assessed as cardiac teratogenesis/necrosis at 50 uM after 72 hrs by visual analysis (reference value: 0%); format: organism-based, Embryo; conditions: in vivo
Danio rerio [18] = species: Danio rerio; test: Toxicity in zebrafish embryos assessed as small eyes at 5 uM after 72 hrs by visual analysis (reference value: 10%); format: organism-based, Embryo; conditions: in vivo
Danio rerio [19] = species: Danio rerio; test: Toxicity in zebrafish embryos assessed as tail necrosis at 0.5 uM after 72 hrs by visual analysis (reference value: 0%); format: organism-based; conditions: in vivo
Danio rerio [20] = test: Toxicity in zebrafish embryos assessed as pericardial edema at 5 uM after 72 hrs by visual analysis (reference value: 10%); format: organism-based, Embryo; conditions: in vivo
Danio rerio [21] = species: Danio rerio; test: Toxicity in zebrafish embryos assessed as small eyes at 0.05 uM after 72 hrs by visual analysis (reference value: 10%); format: organism-based, Embryo; conditions: in vivo
Danio rerio [22] = species: Danio rerio; test: Toxicity in zebrafish embryos assessed as small eyes at 50 uM after 72 hrs by visual analysis (reference value: 10%); format: organism-based, Embryo; conditions: in vivo
[23] = biological target: Histone deacetylase (Homo sapiens) (UniProt Q13547+O15379+Q9UBN7+Q92769+Q9UQL6+Q8WUI4+Q9BY41+Q96DB2+P56524+Q9UKV0+Q969S8); test: Inhibition of HDAC in human K562 cells assessed as decrease in MYC expression measured after 24 to 72 hrs by Western blot analysis; format: cell-based; conditions: time 24-72 hrs
Danio rerio [24] = species: Danio rerio; test: Toxicity in zebrafish embryos assessed as small eyes at 0.005 uM after 72 hrs by visual analysis (reference value: 10%); format: organism-based, Embryo; conditions: in vivo
Danio rerio [25] = test: Toxicity in zebrafish embryos assessed as pericardial edema at 50 uM after 72 hrs by visual analysis (reference value: 10%); format: organism-based, Embryo; conditions: in vivo
Danio rerio [26] = species: Danio rerio; test: Toxicity in zebrafish embryos assessed as malformation of tail at 0.05 uM after 72 hrs by visual analysis (reference value: 5%); format: organism-based; conditions: in vivo
[27] = Nonlethal toxicity in zebrafish embryos assessed as embryo survival at 0.005 uM after 72 hrs by visual analysis (reference value: 100%); format: organism-based, Danio rerio; conditions: in vivo
Danio rerio [28] = species: Danio rerio; test: Toxicity in zebrafish embryos assessed as malformation of head at 0.005 uM after 72 hrs by visual analysis (reference value: 0%); format: organism-based; conditions: in vivo
Danio rerio [29] = species: Danio rerio; test: Toxicity in zebrafish embryos assessed as malformation of head at 5 uM after 72 hrs by visual analysis (reference value: 0%); format: organism-based; conditions: in vivo
[30] = Nonlethal toxicity in zebrafish embryos assessed as embryo survival at 0.5 uM after 72 hrs by visual analysis (reference value: 100%); format: organism-based, Danio rerio; conditions: in vivo
[31] = Nonlethal toxicity in zebrafish embryos assessed as embryo survival at 5 uM after 72 hrs by visual analysis (reference value: 100%); format: organism-based, Danio rerio; conditions: in vivo
Danio rerio [32] = species: Danio rerio; test: Toxicity in zebrafish embryos assessed as brain hemorrhage at 5 uM after 72 hrs by visual analysis (reference value: 0%); format: organism-based; conditions: in vivo
HPBALL [33] = test: Anticancer activity against human HPBALL cells assessed as reduction in total number of colony forming units at 5 uM measured after 24 hrs by colony formation assay; format: functional, cell-based
K562 [34] = test: Anticancer activity against human K562 cells assessed as cell growth inhibition by CellTiter-Glo luminescent assay; format: functional, cell-based
Danio rerio [35] = species: Danio rerio; test: Toxicity in zebrafish embryos assessed as malformation of head at 0.05 uM after 72 hrs by visual analysis (reference value: 0%); format: organism-based; conditions: in vivo
Danio rerio [36] = test: Toxicity in zebrafish embryos assessed as pericardial edema at 0.005 uM after 72 hrs by visual analysis (reference value: 10%); format: organism-based, Embryo; conditions: in vivo
Danio rerio [37] = species: Danio rerio; test: Toxicity in zebrafish embryos assessed as teratogenesis at 0.005 uM after 72 hrs by visual analysis (reference value: 0%); format: organism-based, Embryo; conditions: in vivo
TALL-1 = test: Cytotoxicity against human TALL-1 cells assessed as cell viability at 5 uM by CellTiter-Glo luminescent assay; format: functional; conditions: read-out: Activity
Danio rerio [38] = species: Danio rerio; test: Toxicity in zebrafish embryos assessed as malformation of tail at 0.5 uM after 72 hrs by visual analysis (reference value: 5%); format: organism-based; conditions: in vivo
HPBALL [39] = test: Induction of apoptosis in human HPBALL cells assessed as increase in apoptotic cells at 5 uM after 24 hrs using annexin V/PI followed by flow cytometry; format: functional, cell-based
HPBALL [40] = test: Induction of apoptosis in human HPBALL cells assessed as increase in apoptotic cells at 5 uM after 72 hrs using annexin V/PI followed by flow cytometry; format: functional, cell-based
HPBALL [41] = test: Induction of apoptosis in human HPBALL cells assessed as increase in apoptotic cells at 5 uM after 48 hrs by using annexin V/PI followed by flow cytometry; format: functional, cell-based
K562 [42] = test: Induction of apoptosis in human K562 cells assessed as apoptosis at 3.4 uM after 24 to 72 hrs using annexin V/PI followed by flow cytometry; format: functional, cell-based; conditions: time 24-72 hrs

For `Cc1[nH]c(C(=O)Nc2cc(S(=O)(=O)N3CCOCC3)ccc2OCCCCCCCC(=O)NO)c2c1C(=O)CCCC2`, the Activity (Danio rerio [1]) was 0%, the Activity (HPBALL [2]) was “Active” and the Activity (Danio rerio [3]) was 5%. It also gave an Activity (Danio rerio [4]) of 0%, a Kd [5] of 27 nM and an Activity (Danio rerio [6]) of 15%. For the same molecule, the Activity (Danio rerio [7]) was 0%, the Activity (Danio rerio [8]) was 0% and the Activity (Danio rerio [9]) was 15%. The Activity (Danio rerio [10]) was 0%, the Activity (HPBALL [11]) was “Active” and the Activity (Danio rerio [12]) was 15%. For the same molecule, the viability at 5 µM (MOLT-4) was 1.7%, the Kd [13] was 76 nM and the Activity (Danio rerio [14]) was 0%. It also gave an Activity (Danio rerio [15]) of 15%, an Activity (Danio rerio [16]) of 40% and an Activity (Danio rerio [17]) of 0%. It also gave an Activity (Danio rerio [18]) of 5%, an Activity (Danio rerio [19]) of 0% and an Activity (Danio rerio [20]) of 10%. For the same molecule, the Activity (Danio rerio [21]) was 5%, the Activity (Danio rerio [22]) was 10% and the inhibition [23] was “Active”. For the same molecule, the Activity (Danio rerio [24]) was 10%, the Activity (Danio rerio [25]) was 15% and the Activity (Danio rerio [26]) was 0%. The survival at 72 h, 0.005 µM [27] was 100%, the Activity (Danio rerio [28]) was 15% and the Activity (Danio rerio [29]) was 0%. It also gave a survival at 72 h, 0.5 µM [30] of 100%, a survival at 72 h, 5 µM [31] of 95% and an Activity (Danio rerio [32]) of 0%. The Activity (HPBALL [33]) was “Active”, the IC50 (K562 [34]) was 5990 nM and the Activity (Danio rerio [35]) was 0%. For the same molecule, the Activity (Danio rerio [36]) was 15%, the Activity (Danio rerio [37]) was 15% and the viability at 5 µM (TALL-1) was 50%. The Activity (Danio rerio [38]) was 15%.
For `COc1ccc(S(=O)(=O)n2ccc(/C=C/C(=O)NO)c2)cc1NC(=O)c1[nH]c(C)c2c1CCCCC2=O`, the Activity (HPBALL [2]) was “Active”, the Kd [5] was 230 nM and the viability at 5 µM (MOLT-4) was 4%. For the same molecule, the Kd [13] was 790 nM, the Activity (HPBALL [39]) was “Active” and the Activity (HPBALL [40]) was “Active”. The inhibition [23] was “Active”, the IC50 (K562 [34]) was 2900 nM and the viability at 5 µM (TALL-1) was 10.6%. For the same molecule, the Activity (HPBALL [41]) was “Active”.
With `CCc1c(C(=O)Nc2cc(/C=C/C(=O)NO)ccc2OC)[nH]c(C)c1C(C)=O` the Activity (HPBALL [2]) was “Active”, the Kd [5] was 7400 nM and the Activity (K562 [42]) was “Active”. The viability at 5 µM (MOLT-4) was 3.5%, the Kd [13] was 2980 nM and the Activity (HPBALL [39]) was “Active”. The Activity (HPBALL [40]) was “inactive”, the Activity [23] was “Active” and the IC50 (K562 [34]) was 3400 nM. The viability at 5 µM (TALL-1) was 15.1% and the Activity (HPBALL [41]) was “Active”.
